Reference: paper PMC9250534, “Synthesis and direct assay of large macrocycle diversities by combinatorial late-stage modification at picomole scale” (Nature Communications, 2022)

Each compound was assayed against MDM2 (Homo sapiens, UniProt Q00987) (assay: MDM2 binding screen of Libraries 3 and 4: displacement of fluorescent probe F-M8 at 750 nM macrocycle). Conditions: Panel b, Library 3: 63 scaffolds combinatorially acylated with 15 carboxylic acids at 30 picomole scale; displacement of fluorescent peptide probe; macrocycle 750 nM.
Sequence of MDM2 (Q00987 whole entry): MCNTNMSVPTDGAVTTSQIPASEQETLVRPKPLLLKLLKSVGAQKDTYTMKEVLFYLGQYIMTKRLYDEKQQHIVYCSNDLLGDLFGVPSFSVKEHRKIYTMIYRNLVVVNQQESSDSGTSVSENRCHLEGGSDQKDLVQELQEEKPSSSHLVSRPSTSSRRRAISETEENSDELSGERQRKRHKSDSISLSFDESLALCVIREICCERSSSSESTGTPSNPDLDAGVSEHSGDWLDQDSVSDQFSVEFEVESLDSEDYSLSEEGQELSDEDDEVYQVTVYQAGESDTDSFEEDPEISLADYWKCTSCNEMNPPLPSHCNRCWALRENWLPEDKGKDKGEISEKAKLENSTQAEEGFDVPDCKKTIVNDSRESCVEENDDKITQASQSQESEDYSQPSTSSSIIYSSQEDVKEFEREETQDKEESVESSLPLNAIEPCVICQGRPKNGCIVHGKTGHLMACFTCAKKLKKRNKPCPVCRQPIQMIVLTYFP
Summary of the method: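 Competition with nutlin-3a was run using the fluorescein conjugate. Library members came from scaffolds reacted 6 h at room temperature with carboxylic acids (20 equiv.), HBTU and DABCO in DMSO. Quenching was overnight in Tris-Cl pH 7.4 buffer with 0.01% Tween20.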
In the case of `Cn1cc(C[C@@H]2NC(=O)[C@@H](CNC(=O)c3ccc(Cl)s3)NC(=O)[C@@H]3CN(CCO3)C(=O)CCSSCCNC2=O)c2ccccc21` [X-Cop-D-Dap-Me-Trp + Acid 14], the “fraction of fluorescent probe displaced” value is reported as -0.00533.
In the case of `Cn1cc(C[C@@H]2NC(=O)[C@@H](CNC(=O)c3ccc4ccccc4c3)NC(=O)[C@@H]3CN(CCO3)C(=O)CCSSCCNC2=O)c2ccccc21` [X-Cop-D-Dap-Me-Trp + Acid 107], the “fraction of fluorescent probe displaced” value is reported as 0.050.
In the case of `Cn1cc(C[C@@H]2NC(=O)[C@@H](CNC(=O)/C=C/c3ccc(Cl)cc3)NC(=O)[C@@H]3CN(CCO3)C(=O)CCSSCCNC2=O)c2ccccc21` [X-Cop-D-Dap-Me-Trp + Acid 108], the “fraction of fluorescent probe displaced” value is reported as 0.021.
For `Cn1cc(CC2NC(=O)C(CNC(=O)C=Cc3ccc(OCc4ccccc4)cc3)NC(=O)C3CN(CCO3)C(=O)CCSSCCNC2=O)c2ccccc21` [X-Cop-D-Dap-Me-Trp + Acid 110], the “fraction of fluorescent probe displaced” value was 0.028.
`CN1C(=O)[C@@H](CNC(=O)c2ccc(Cl)s2)NC(=O)[C@@H]2CN(CCO2)C(=O)CCSSCCNC(=O)[C@@H]1Cc1c[nH]c2ccccc12` [X-Cop-D-Dap-NMe-Trp + Acid 14] was tested, and the “fraction of fluorescent probe displaced” value was -0.019.
`CN1C(=O)[C@@H](CNC(=O)c2ccc(Cl)cc2)NC(=O)[C@@H]2CN(CCO2)C(=O)CCSSCCNC(=O)[C@@H]1Cc1c[nH]c2ccccc12` [X-Cop-D-Dap-NMe-Trp + Acid 25] was tested, and the “fraction of fluorescent probe displaced” value was -0.019.
In the case of `CN1C(=O)[C@@H](CNC(=O)/C=C/c2ccc(Cl)cc2)NC(=O)[C@@H]2CN(CCO2)C(=O)CCSSCCNC(=O)[C@@H]1Cc1c[nH]c2ccccc12` [X-Cop-D-Dap-NMe-Trp + Acid 108], the “fraction of fluorescent probe displaced” value is reported as 0.008.
With `CN1C(=O)[C@@H](CNC(=O)/C=C/c2ccc(OCc3ccccc3)cc2)NC(=O)[C@@H]2CN(CCO2)C(=O)CCSSCCNC(=O)[C@@H]1Cc1c[nH]c2ccccc12` [X-Cop-D-Dap-NMe-Trp + Acid 110] the “fraction of fluorescent probe displaced” value was 0.015.
`CN1C(=O)C(CNC(=O)c2cccc(Oc3ccccc3)c2)NC(=O)C2CN(CCO2)C(=O)CCSSCCNC(=O)C1Cc1c[nH]c2ccccc12` [X-Cop-D-Dap-NMe-Trp + Acid 111] was tested, and the “fraction of fluorescent probe displaced” value was 0.00133.
`CN1C(=O)[C@@H](CNC(=O)/C=C/c2ccc3ccccc3c2)NC(=O)[C@@H]2CN(CCO2)C(=O)CCSSCCNC(=O)[C@@H]1Cc1c[nH]c2ccccc12` [X-Cop-D-Dap-NMe-Trp + Acid 112] was tested, and the “fraction of fluorescent probe displaced” value was 0.035.
`O=C(NC[C@H]1NC(=O)[C@@H]2CN(CCO2)C(=O)CCSSCCNC(=O)[C@H](Cc2c[nH]c3ccccc23)NC1=O)c1ccc(Cl)cc1` [X-Cop-D-Dap-Trp + Acid 25] was tested, and the “fraction of fluorescent probe displaced” value was 0.00133.
With `O=C(C=Cc1ccc(Cl)cc1)NCC1NC(=O)C2CN(CCO2)C(=O)CCSSCCNC(=O)C(Cc2c[nH]c3ccccc23)NC1=O` [X-Cop-D-Dap-Trp + Acid 108] the “fraction of fluorescent probe displaced” value was 0.021.
In the case of `O=C(/C=C/c1ccc(OCc2ccccc2)cc1)NC[C@H]1NC(=O)[C@@H]2CN(CCO2)C(=O)CCSSCCNC(=O)[C@H](Cc2c[nH]c3ccccc23)NC1=O` [X-Cop-D-Dap-Trp + Acid 110], the “fraction of fluorescent probe displaced” value is reported as -0.00533.
With `O=C(NC[C@H]1NC(=O)[C@@H]2CN(CCO2)C(=O)CCSSCCNC(=O)[C@H](Cc2c[nH]c3ccccc23)NC1=O)c1cccc(Oc2ccccc2)c1` [X-Cop-D-Dap-Trp + Acid 111] the “fraction of fluorescent probe displaced” value was 0.015.
For `O=C(NC[C@H]1NC(=O)[C@@H]2CN(CCO2)C(=O)CCSSCCNC(=O)[C@H](Cc2c[nH]c3ccccc23)NC1=O)C1COc2ccccc2O1` (stereo partly drawn) [X-Cop-D-Dap-Trp + Acid 115], the “fraction of fluorescent probe displaced” value was 0.008.
`O=C(NC[C@@H]1NC(=O)[C@@H]2CN(CCO2)C(=O)CCSSCCNC(=O)[C@H](Cc2cccc3ccccc23)NC1=O)c1ccc(Cl)s1` [X-Cop-Dap-1-NaI + Acid 14] was tested, and the “fraction of fluorescent probe displaced” value was 0.008.
In the case of `O=C(NCC1NC(=O)C2CN(CCO2)C(=O)CCSSCCNC(=O)C(Cc2cccc3ccccc23)NC1=O)c1ccc(Cl)cc1` (stereo not drawn) [X-Cop-Dap-1-NaI + Acid 25], the “fraction of fluorescent probe displaced” value is reported as -0.012.
In the case of `O=C(/C=C/c1ccc2ccccc2c1)NC[C@@H]1NC(=O)[C@@H]2CN(CCO2)C(=O)CCSSCCNC(=O)[C@H](Cc2cccc3ccccc23)NC1=O` [X-Cop-Dap-1-NaI + Acid 112], the “fraction of fluorescent probe displaced” value is reported as 0.021.
For `O=C(CCS(=O)(=O)c1ccccc1)NC[C@@H]1NC(=O)[C@@H]2CN(CCO2)C(=O)CCSSCCNC(=O)[C@H](Cc2cccc3ccccc23)NC1=O` [X-Cop-Dap-1-NaI + Acid 114], the “fraction of fluorescent probe displaced” value was 0.021.
In the case of `O=C(NC[C@@H]1NC(=O)[C@@H]2CN(CCO2)C(=O)CCSSCCNC(=O)[C@H](Cc2ccc3ccccc3c2)NC1=O)c1ccc(Cl)cc1` [X-Cop-Dap-2-Nal + Acid 25], the “fraction of fluorescent probe displaced” value is reported as 0.041.
`O=C(/C=C/c1ccc(OCc2ccccc2)cc1)NC[C@@H]1NC(=O)[C@@H]2CN(CCO2)C(=O)CCSSCCNC(=O)[C@H](Cc2ccc3ccccc3c2)NC1=O` [X-Cop-Dap-2-Nal + Acid 110] was tested, and the “fraction of fluorescent probe displaced” value was 0.035.
In the case of `O=C(NCC1NC(=O)C2CN(CCO2)C(=O)CCSSCCNC(=O)C(Cc2ccc3ccccc3c2)NC1=O)c1cccc(Oc2ccccc2)c1` (stereo not drawn) [X-Cop-Dap-2-Nal + Acid 111], the “fraction of fluorescent probe displaced” value is reported as 0.008.
With `O=C(CCS(=O)(=O)c1ccccc1)NC[C@@H]1NC(=O)[C@@H]2CN(CCO2)C(=O)CCSSCCNC(=O)[C@H](Cc2ccc3ccccc3c2)NC1=O` [X-Cop-Dap-2-Nal + Acid 114] the “fraction of fluorescent probe displaced” value was -0.00533.
In the case of `O=C(NC[C@@H]1NC(=O)[C@@H]2CN(CCO2)C(=O)CCSSCCNC(=O)[C@H](Cc2c[nH]c3cc(Cl)ccc23)NC1=O)c1ccc(Cl)s1` [X-Cop-Dap-Cl-Trp + Acid 14], the “fraction of fluorescent probe displaced” value is reported as 0.128.
With `O=C(NCC1NC(=O)C2CN(CCO2)C(=O)CCSSCCNC(=O)C(Cc2c[nH]c3cc(Cl)ccc23)NC1=O)c1ccc(Cl)cc1` (stereo not drawn) [X-Cop-Dap-Cl-Trp + Acid 25] the “fraction of fluorescent probe displaced” value was 0.088.
`O=C(C=Cc1ccncc1)NCC1NC(=O)C2CN(CCO2)C(=O)CCSSCCNC(=O)C(Cc2c[nH]c3cc(Cl)ccc23)NC1=O` (stereo not drawn) [X-Cop-Dap-Cl-Trp + Acid 106] was tested, and the “fraction of fluorescent probe displaced” value was 0.284.
For `O=C(NC[C@@H]1NC(=O)[C@@H]2CN(CCO2)C(=O)CCSSCCNC(=O)[C@H](Cc2c[nH]c3cc(Cl)ccc23)NC1=O)c1ccc2ccccc2c1` [X-Cop-Dap-Cl-Trp + Acid 107], the “fraction of fluorescent probe displaced” value was 0.102.
In the case of `O=C(C=Cc1ccc(Cl)cc1)NCC1NC(=O)C2CN(CCO2)C(=O)CCSSCCNC(=O)C(Cc2c[nH]c3cc(Cl)ccc23)NC1=O` (stereo not drawn) [X-Cop-Dap-Cl-Trp + Acid 108], the “fraction of fluorescent probe displaced” value is reported as 0.075.
`O=C(/C=C/c1ccc(OCc2ccccc2)cc1)NC[C@@H]1NC(=O)[C@@H]2CN(CCO2)C(=O)CCSSCCNC(=O)[C@H](Cc2c[nH]c3cc(Cl)ccc23)NC1=O` [X-Cop-Dap-Cl-Trp + Acid 110] was tested, and the “fraction of fluorescent probe displaced” value was 0.021.
For `O=C(CCS(=O)(=O)c1ccccc1)NC[C@@H]1NC(=O)[C@@H]2CN(CCO2)C(=O)CCSSCCNC(=O)[C@H](Cc2c[nH]c3cc(Cl)ccc23)NC1=O` [X-Cop-Dap-Cl-Trp + Acid 114], the “fraction of fluorescent probe displaced” value was -0.039.
With `O=C(NC[C@@H]1NC(=O)[C@@H]2CN(CCO2)C(=O)CCSSCCNC(=O)[C@@H](Cc2c[nH]c3ccccc23)NC1=O)c1ccc(Cl)cc1` [X-Cop-Dap-D-Trp + Acid 25] the “fraction of fluorescent probe displaced” value was -0.012.
In the case of `O=C(/C=C/c1ccc2ccccc2c1)NC[C@@H]1NC(=O)[C@@H]2CN(CCO2)C(=O)CCSSCCNC(=O)[C@@H](Cc2c[nH]c3ccccc23)NC1=O` [X-Cop-Dap-D-Trp + Acid 112], the “fraction of fluorescent probe displaced” value is reported as 0.028.
For `O=C(CCS(=O)(=O)c1ccccc1)NC[C@@H]1NC(=O)[C@@H]2CN(CCO2)C(=O)CCSSCCNC(=O)[C@@H](Cc2c[nH]c3ccccc23)NC1=O` [X-Cop-Dap-D-Trp + Acid 114], the “fraction of fluorescent probe displaced” value was 0.021.
With `O=C(NC[C@@H]1NC(=O)[C@@H]2CN(CCO2)C(=O)CCSSCCNC(=O)[C@@H](Cc2c[nH]c3ccccc23)NC1=O)C1COc2ccccc2O1` (stereo partly drawn) [X-Cop-Dap-D-Trp + Acid 115] the “fraction of fluorescent probe displaced” value was 0.008.
`Cn1cc(C[C@@H]2NC(=O)[C@H](CNC(=O)c3ccc(Cl)s3)NC(=O)[C@@H]3CN(CCO3)C(=O)CCSSCCNC2=O)c2ccccc21` [X-Cop-Dap-Me-Trp + Acid 14] was tested, and the “fraction of fluorescent probe displaced” value was 0.00133.
With `Cn1cc(C[C@@H]2NC(=O)[C@H](CNC(=O)c3ccc(Cl)cc3)NC(=O)[C@@H]3CN(CCO3)C(=O)CCSSCCNC2=O)c2ccccc21` [X-Cop-Dap-Me-Trp + Acid 25] the “fraction of fluorescent probe displaced” value was 0.015.

Same assay, conditions: Panel c, Library 4: best nine scaffolds and 15 additional carboxylic acids; displacement of fluorescent probe
`CCOc1ccc(/C=C/C(=O)NC[C@@H]2NC(=O)[C@@H]3CN(CCO3)C(=O)CCSSCCNC(=O)[C@H](Cc3c[nH]c4cc(Cl)ccc34)NC2=O)cc1` [X-Cop-Dap-Cl-Trp + Acid 117] was tested, and the “fraction of fluorescent probe displaced” value was 0.175.
`O=C(/C=C/c1ccc(Cl)c(Cl)c1)NC[C@@H]1NC(=O)[C@@H]2CN(CCO2)C(=O)CCSSCCNC(=O)[C@H](Cc2c[nH]c3cc(Cl)ccc23)NC1=O` [X-Cop-Dap-Cl-Trp + Acid 119] was tested, and the “fraction of fluorescent probe displaced” value was 0.126.
With `C/C(=C\c1ccccc1)C(=O)NC[C@@H]1NC(=O)[C@@H]2CN(CCO2)C(=O)CCSSCCNC(=O)[C@H](Cc2c[nH]c3cc(Cl)ccc23)NC1=O` [X-Cop-Dap-Cl-Trp + Acid 123] the “fraction of fluorescent probe displaced” value was 0.012.
In the case of `CC(C)c1ccc(/C=C/C(=O)NC[C@@H]2NC(=O)[C@@H]3CN(CCO3)C(=O)CCSSCCNC(=O)[C@H](Cc3c[nH]c4cc(Cl)ccc34)NC2=O)cc1` [X-Cop-Dap-Cl-Trp + Acid 127], the “fraction of fluorescent probe displaced” value is reported as 0.085.
